Tests used:
Assay in all cases: relative viability (nuclei count vs DMSO), 5 days (fraction); higher = more cells survive
[1] = compound: C=CC(=O)Nc1cc(-n2c(=O)ccc3cnc4ccc(-c5ccc(NS(C)(=O)=O)cc5)cc4c32)ccc1C [BMX-IN-1]
Procedure, shortened: (§1)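 Viability was read as treated-well nuclei divided by vehicle-well nuclei, using the median across plates. Lung cancer cell lines in 1536-well plates were kept overnight at 37 °C, pinned with five √10-spaced library-drug doses, and after 5 days were Hoechst-stained, imaged at 4× and counted in MetaXpress. Plates passed only with control CV below 25% and at least one doubling.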

[2] = compound: C=CC(=O)N1CCC[C@@H](n2nc(-c3ccc(Oc4ccccc4)cc3)c3c(N)ncnc32)C1 [Ibrutinib]
Procedure, shortened: as §1

[3] = compound: C=CCc1cccc(/C=N/NC(=O)CN2CCN(Cc3ccccc3)CC2)c1O [PAC-1]
Procedure, shortened: as §1

[4] = compound: C=CC(=O)N1CCC[C@@H](n2nc(-c3ccc(Oc4ccccc4)cc3)c3c(N)ncnc32)C1 [Ibrutinib] + Cc1nc(NC(=O)N2CCC[C@H]2C(N)=O)sc1-c1ccnc(C(C)(C)C(F)(F)F)c1 [Alpelisib] (partner 2 µM)
Procedure, shortened: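 Cells from lung cancer lines were seeded into 1536-well plates and, one day later, dosed by pin tool. Treatments were either a single drug or a fixed dose of an anchor drug with five library-drug doses (not always all listed) in √10 steps. After 5 days, nuclei were stained in a one-step fixation (final 0.05% Triton X-100, 1% formaldehyde, 1 ug/ml Hoechst) and counted on 4× images, and relative viability is the treated-to-vehicle nuclei ratio, as the median of duplicate plates.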

| Cell Line | relative viability ([1]; 0.02 µM) | relative viability ([1]; 0.2 µM) | relative viability ([1]; 0.6325 µM) | relative viability ([1]; 2 µM) | relative viability ([2]; 0.005 µM) | relative viability ([2]; 0.01581 µM) | relative viability ([2]; 0.05 µM) | relative viability ([2]; 0.1581 µM) | relative viability ([2]; 0.5 µM) | relative viability ([3]; 0.02 µM) | relative viability ([3]; 0.06325 µM) | relative viability ([3]; 0.2 µM) | relative viability ([3]; 2 µM) | relative viability ([4]; first compound 0.005 µM) | relative viability ([4]; first compound 0.01581 µM) | relative viability ([4]; first compound 0.05 µM) | relative viability ([4]; first compound 0.1581 µM) | relative viability ([4]; first compound 0.5 µM) |
| --- | --- | --- | --- | --- | --- | --- | --- | --- | --- | --- | --- | --- | --- | --- | --- | --- | --- | --- |
| NCI-H1623 | 0.995 | 1.01 | 0.988 | 0.882 | 0.894 | 0.842 | 0.672 | 0.858 | 0.299 | 0.966 | 0.891 | 0.95 | 0.926 | – | – | – | – | – |
| HOP-62 | 1.1 | 1.08 | 1.08 | 1.06 | 1.02 | 0.964 | 0.994 | 0.949 | 1.14 | 1.05 | 1 | 0.996 | 1.07 | 0.638 | 0.954 | 1.02 | 1.2 | 0.918 |
| NCI-H727 | 1 | 1.14 | 0.964 | 0.94 | 0.857 | 0.912 | 0.902 | 0.61 | – | 0.968 | 1.15 | 0.944 | 0.916 | 0.519 | 0.556 | 0.433 | 0.576 | 0.435 |
| ChaGo-K-1 | 1.14 | 1.05 | 0.963 | 1.02 | 0.953 | 0.95 | 0.958 | 0.913 | 1.02 | 1.05 | 1.01 | 1 | 0.929 | – | – | – | – | – |
| BEN | 1.17 | 1.27 | 0.861 | 1.01 | – | 0.925 | 0.843 | 0.718 | 0.997 | 0.987 | 0.901 | 0.912 | 1.04 | 0.785 | 0.906 | 0.944 | 0.891 | 1.06 |
| NCI-H596 | 1.12 | 0.951 | 1.02 | 0.96 | 0.74 | 0.965 | 0.939 | 0.837 | 0.858 | 1 | 0.937 | 1.07 | 1.05 | 0.482 | 0.503 | 0.51 | 0.503 | 0.479 |
| LU99A | 0.986 | 0.95 | 1.06 | 0.962 | 0.992 | 0.884 | 0.892 | 1.06 | 0.939 | 0.908 | 0.977 | 0.892 | 0.954 | 0.419 | 0.449 | 0.492 | 0.499 | 0.496 |
| NCI-H460 | 1.24 | 1.09 | 1.04 | 1.07 | 1.07 | 0.922 | 0.979 | 0.917 | 1.02 | 0.979 | 0.966 | 0.934 | 1.07 | 0.5 | 0.319 | 0.496 | 0.536 | 0.538 |
| NCI-H1648 | 0.937 | 0.878 | 0.792 | 0.829 | 0.758 | 0.751 | 0.676 | 0.792 | 0.63 | 0.795 | 1.07 | 0.931 | 0.991 | – | – | – | – | – |
| HCC-44 | 1.03 | 1.06 | 1.13 | 0.998 | 1.04 | 0.995 | 0.994 | 1.02 | 1.04 | 0.99 | 1.05 | 0.997 | 0.981 | 0.864 | 0.658 | 0.874 | 0.87 | 0.724 |
| NCI-H647 | 1.32 | 1.07 | 0.957 | 0.96 | 0.724 | 0.855 | 0.86 | 0.876 | 0.879 | 0.985 | 0.995 | 0.892 | 0.933 | 1.15 | 1.01 | 1.14 | 1.45 | 1.21 |
| Calu-6 | 1.14 | 1.06 | 1.2 | 0.999 | 1.1 | 0.965 | 1 | 1.01 | 1.03 | 0.98 | 1.01 | 0.964 | 1.01 | 1.02 | 0.993 | – | 1.06 | 0.93 |
| 201T | 1.11 | 0.996 | 1.05 | 1.03 | 0.979 | 0.992 | 0.964 | 0.876 | 0.955 | 0.959 | 1.02 | 1.01 | 0.981 | – | 0.97 | 1.03 | 1 | 0.938 |
| CAL-12T | 1.08 | 0.995 | 1.03 | 0.989 | 0.824 | 0.907 | 0.902 | 0.932 | 0.678 | 1.02 | 1.11 | 0.984 | 0.947 | – | 0.831 | 1.14 | 1.18 | 0.698 |
| HCC-78 | 1.01 | 1.08 | 1.02 | 0.952 | 0.904 | 0.97 | 0.916 | 0.748 | 0.691 | 1.01 | 0.892 | 0.974 | 1.11 | 0.346 | 0.315 | 0.292 | 0.391 | 0.24 |
| LK-2 | 1.31 | 1.24 | 0.978 | 1.02 | 0.936 | 0.912 | 0.956 | 0.929 | 0.949 | 0.933 | 0.983 | 1 | 1.02 | – | 0.837 | 1.36 | 0.938 | 0.89 |
| NCI-H522 | 0.882 | 0.906 | 1.04 | 0.938 | 0.796 | 1.09 | 0.85 | 0.752 | 0.76 | 1.08 | 1.1 | 0.872 | 1.05 | – | – | – | – | – |
| NCI-H322M | 1.07 | 0.905 | 0.967 | 0.943 | 0.801 | 0.811 | 0.843 | 0.666 | 0.671 | 0.833 | 0.897 | 1.05 | 0.884 | 0.752 | 0.807 | 0.779 | 0.838 | 0.486 |
| COR-L 105 | 1.07 | 0.937 | 1.3 | 0.961 | 0.806 | 0.878 | 0.676 | 0.814 | 0.393 | 0.919 | 0.901 | 0.903 | 0.985 | 0.899 | 0.762 | 0.866 | 1.11 | 0.43 |

From the supplement of paper PMC10307832
